Measurements: patent US20090093544A1, “INSECTICIDAL COMPOSITIONS HAVING IMPROVED EFFECT” (Bayer CropScience AG, priority 2005, published 2009)

System: Spodoptera frugiperda
Experiment: Spodoptera frugiperda test (SPODFR), spray treatment of maize plants
Type: in vivo
Details: 168 h, read-out: Mortality/% 7 d
Method: Spodoptera frugiperda—Test (SPODFR)
For the preparation of an expedient active ingredient preparation, 1 part by weight of active ingredient is mixed with the stated amounts of solvent and emulsifier, and the concentrate is diluted with emulsifier-containing water to the desired concentration. If it is necessary to add ammonium salts or ammonium salts and penetration promoter, the corresponding amount is pipetted into each of the ready preparation solution after the dilution.
Maize plants (Zea mais) are treated with the active ingredient preparation in the desired concentration by spraying and are populated with caterpillars of the fall armyworm (Spodoptera frugiperda) as long as the leaves are still moist.
After the desired time, the kill in % is determined. 100% means that all caterpillars were killed; 0% means that no caterpillars were killed.

Compound `Cc1cc(C(F)(C(F)(F)F)C(F)(F)F)ccc1NC(=O)c1cccc(Cl)c1C(=O)N[C@@H](C)CS(C)(=O)=O` [(Ib)] has a mortality at 0.192 g/ha of 70%.
